Here are results for four molecules from ChEMBL document CHEMBL3352227, “Synthesis, antimycobacterial and antibacterial evaluation of l-[(1R, 2S)-2-fluorocyclopropyl]fluoroquinolone derivatives containing an oxime functional moiety” (Eur J Med Chem, 2014).

Molecules are shown by their SMILES. Converted amounts (≈) assume the structure as drawn.

What is called MIC is the least concentration at which growth counts as inhibited.

Common to all, as to assay type: functional
The subject of test [1] is Pseudomonas aeruginosa. As to the kind of experiment: Antibacterial activity against Pseudomonas aeruginosa 12-14 after 18 to 24 hrs by standard twofold serial dilution method.
For test [2], the system named is Staphylococcus aureus. As to the kind of experiment: Antibacterial activity against Staphylococcus aureus ATCC 25923 after 18 to 24 hrs by standard twofold serial dilution method.
Test [3] deals with Escherichia coli. Kind of test: Antibacterial activity against extended-spectrum beta-lactamase producing Escherichia coli 12-15 after 18 to 24 hrs by standard twofold serial dilution method.
For test [4], the system named is Staphylococcus aureus. As to the kind of experiment: Antibacterial activity against methicillin-resistant Staphylococcus aureus 12-5 after 18 to 24 hrs by standard twofold serial dilution method.
Test [5] concerns Klebsiella pneumoniae. As to the kind of experiment: Antibacterial activity against Klebsiella pneumoniae 12-4 after 18 to 24 hrs by standard twofold serial dilution method.
The subject of test [6] is Staphylococcus epidermidis. Kind of test: Antibacterial activity against methicillin-sensitive Staphylococcus epidermidis 12-1 after 18 to 24 hrs by standard twofold serial dilution method.
The test system of test [7] is Staphylococcus epidermidis. Kind of test: Antibacterial activity against methicillin-sensitive Staphylococcus epidermidis 12-3 after 18 to 24 hrs by standard twofold serial dilution method.
The subject of test [8] is Klebsiella pneumoniae. As to the kind of experiment: Antibacterial activity against extended-spectrum beta-lactamase producin Klebsiella pneumoniae 12-4 after 18 to 24 hrs by standard twofold serial dilution method.
Test [9] has as its system Staphylococcus aureus. Kind of test: Antibacterial activity against methicillin-resistant Staphylococcus aureus 12-2 after 18 to 24 hrs by standard twofold serial dilution method.
Test [10] relates to Escherichia coli. As to the kind of experiment: Antibacterial activity against extended-spectrum beta-lactamase producing Escherichia coli 12-14 after 18 to 24 hrs by standard twofold serial dilution method.
Test [11] has as its system Escherichia coli. As to the kind of experiment: Antibacterial activity against extended-spectrum beta-lactamase producing Escherichia coli 12-3 after 18 to 24 hrs by standard twofold serial dilution method.
The subject of test [12] is Staphylococcus epidermidis. Kind of test: Antibacterial activity against methicillin-sensitive Staphylococcus epidermidis 12-8 after 18 to 24 hrs by standard twofold serial dilution method.
Test [13] has as its system Staphylococcus aureus. As to the kind of experiment: Antibacterial activity against methicillin-sensitive Staphylococcus aureus 12-4 after 18 to 24 hrs by standard twofold serial dilution method.
For test [14], the system named is Staphylococcus aureus. As to the kind of experiment: Antibacterial activity against methicillin-sensitive Staphylococcus aureus 12-1 after 18 to 24 hrs by standard twofold serial dilution method.
The test system of test [15] is Klebsiella pneumoniae. Kind of test: Antibacterial activity against extended-spectrum beta-lactamase producin Klebsiella pneumoniae 12-14 after 18 to 24 hrs by standard twofold serial dilution method.
Test [16] deals with Escherichia coli. Kind of test: Antibacterial activity against extended-spectrum beta-lactamase producing Escherichia coli 12-2 after 18 to 24 hrs by standard twofold serial dilution method.
The test system of test [17] is Escherichia coli. As to the kind of experiment: Antibacterial activity against Escherichia coli ATCC 25922 after 18 to 24 hrs by standard twofold serial dilution method.
Test [18] deals with Klebsiella pneumoniae. As to the kind of experiment: Antibacterial activity against Klebsiella pneumoniae 12-1 after 18 to 24 hrs by standard twofold serial dilution method.
Test [19] concerns Staphylococcus aureus. Kind of test: Antibacterial activity against methicillin-sensitive Staphylococcus aureus 12-5 after 18 to 24 hrs by standard twofold serial dilution method.
In test [20] the test system is Mycobacterium tuberculosis. Kind of test: Antimycobacterial activity against Mycobacterium tuberculosis H37Rv ATCC 27294 by MABA method. (The colour change of resazurin is a common sign of viable cells or microbes.)
The test system of test [21] is Staphylococcus aureus. Kind of test: Antibacterial activity against methicillin-sensitive Staphylococcus aureus 12-2 after 18 to 24 hrs by standard twofold serial dilution method.
Test [22] relates to Pseudomonas aeruginosa. As to the kind of experiment: Antibacterial activity against Pseudomonas aeruginosa 12-12 after 18 to 24 hrs by standard twofold serial dilution method.
In test [23] the test system is Staphylococcus epidermidis. Kind of test: Antibacterial activity against methicillin-resistant Staphylococcus epidermidis 12-6 after 18 to 24 hrs by standard twofold serial dilution method.
The subject of test [24] is Staphylococcus epidermidis. As to the kind of experiment: Antibacterial activity against methicillin-sensitive Staphylococcus epidermidis 12-6 after 18 to 24 hrs by standard twofold serial dilution method.
Test [25] deals with Klebsiella pneumoniae. As to the kind of experiment: Antibacterial activity against Klebsiella pneumoniae 12-2 after 18 to 24 hrs by standard twofold serial dilution method.
The test system of test [26] is Staphylococcus epidermidis. Kind of test: Antibacterial activity against methicillin-resistant Staphylococcus epidermidis 12-1 after 18 to 24 hrs by standard twofold serial dilution method.
Test [27] relates to Escherichia coli. As to the kind of experiment: Antibacterial activity against Escherichia coli 12-1 after 18 to 24 hrs by standard twofold serial dilution method.
The subject of test [28] is Streptococcus pneumoniae. As to the kind of experiment: Antibacterial activity against Streptococcus pneumoniae ATCC 49619 after 18 to 24 hrs by standard twofold serial dilution method.
In test [29] the test system is Staphylococcus aureus. Kind of test: Antibacterial activity against methicillin-resistant Staphylococcus aureus 12-4 after 18 to 24 hrs by standard twofold serial dilution method.
For test [30], the system named is Klebsiella pneumoniae. Kind of test: Antibacterial activity against extended-spectrum beta-lactamase producin Klebsiella pneumoniae 12-3 after 18 to 24 hrs by standard twofold serial dilution method.
In test [31] the test system is Klebsiella pneumoniae. As to the kind of experiment: Antibacterial activity against extended-spectrum beta-lactamase producin Klebsiella pneumoniae 12-7 after 18 to 24 hrs by standard twofold serial dilution method.
Test [32] deals with Streptococcus pneumoniae. Kind of test: Antibacterial activity against Streptococcus pneumoniae 12-18 after 18 to 24 hrs by standard twofold serial dilution method.

On to `C[C@H]1COc2c(N3CCN(C)CC3)c(F)cc3c(=O)c(C(=O)O)cn1c23.C[C@H]1COc2c(N3CCN(C)CC3)c(F)cc3c(=O)c(C(=O)O)cn1c23.O` [LEVOFLOXACIN], for which the minimal inhibitory concentration (MIC) is 16 µg/mL in [1]; < 0.008 µg/mL in [2]; 32 µg/mL in test [3]; 32 µg/mL in test [4]; < 0.008 µg/mL in test [5]; 0.125 µg/mL in [6]. In addition, the MIC in [7] came out at 0.5 µg/mL; in [8], 8 µg/mL; in test [9], 32 µg/mL; in [10] it was 16 µg/mL; in [11] it was 32 µg/mL; in [12], 4 µg/mL. The minimum inhibitory concentration (MIC) is 0.125 µg/mL in [13]; 0.125 µg/mL in test [14]; 16 µg/mL in [15]; 16 µg/mL in [16]; < 0.008 µg/mL in test [17]; 0.06 µg/mL in test [18]. Further, the MIC in test [19] is 0.125 µg/mL; in [20] it was 0.25 µg/mL; in test [21], 0.125 µg/mL; in test [22], 0.5 µg/mL; in test [23], 32 µg/mL; in [24] it was 0.125 µg/mL. Moreover, the minimal inhibitory concentration (MIC) in [25] is < 0.008 µg/mL; in [26], 4 µg/mL; in test [27], 0.25 µg/mL; in test [28] it was 0.125 µg/mL; in test [29], 32 µg/mL; in test [30], 16 µg/mL.

Take `O=C(O)c1cn(C2CC2)c2cc(N3CCNCC3)c(F)cc2c1=O` [CIPROFLOXACIN]: the MIC was 32 µg/mL (≈ 96.6 µM) in test [1]; 0.25 µg/mL (≈ 0.754 µM) in [2]; 64 µg/mL (≈ 193 µM) in test [3]; 32 µg/mL (≈ 96.6 µM) in test [4]; 0.5 µg/mL (≈ 1.51 µM) in test [31]; < 0.008 µg/mL in [5]. For the same molecule, the MIC in [6] stood at 0.25 µg/mL (≈ 0.754 µM); in test [7], 2 µg/mL (≈ 6.04 µM); in [8], 4 µg/mL (≈ 12.1 µM); in test [32], 1 µg/mL (≈ 3.02 µM); in [9], 64 µg/mL (≈ 193 µM); in test [12] it was 4 µg/mL (≈ 12.1 µM). Besides, the MIC is 0.25 µg/mL (≈ 0.754 µM) in test [13]; 0.25 µg/mL (≈ 0.754 µM) in [14]; 64 µg/mL (≈ 193 µM) in test [15]; < 0.008 µg/mL in [17]; 0.125 µg/mL (≈ 0.377 µM) in [18]; 0.25 µg/mL (≈ 0.754 µM) in [19]. Further, the MIC in [20] worked out at 0.25 µg/mL (≈ 0.754 µM); in test [21] it was 0.25 µg/mL (≈ 0.754 µM); in [23], 16 µg/mL (≈ 48.3 µM); in [24], 0.25 µg/mL (≈ 0.754 µM); in test [25], 0.03 µg/mL (≈ 0.0905 µM); in test [26], 8 µg/mL (≈ 24.1 µM). For the same molecule, the results for the minimal inhibitory concentration (MIC) in test [28], in test [29] and in test [30] were 0.25 µg/mL (≈ 0.754 µM), 64 µg/mL (≈ 193 µM) and 32 µg/mL (≈ 96.6 µM), respectively.

In the case of `COc1c(N2C[C@@H]3CCCN[C@@H]3C2)c(F)cc2c(=O)c(C(=O)O)cn(C3CC3)c12` [MOXIFLOXACIN], the MIC is 16 µg/mL (≈ 39.9 µM) in test [1]; < 0.008 µg/mL in test [2]; 32 µg/mL (≈ 79.7 µM) in test [3]; 8 µg/mL (≈ 19.9 µM) in [4]; 0.5 µg/mL (≈ 1.25 µM) in test [31]; 0.03 µg/mL (≈ 0.0747 µM) in [5]. The MIC in [6] was found to be 0.03 µg/mL (≈ 0.0747 µM); in test [7] it was 0.125 µg/mL (≈ 0.311 µM); in [8], 0.5 µg/mL (≈ 1.25 µM); in [32], 0.5 µg/mL (≈ 1.25 µM); in [9], 8 µg/mL (≈ 19.9 µM); in [11], 64 µg/mL (≈ 159 µM). The MIC in [12] was 1 µg/mL (≈ 2.49 µM); in test [13], < 0.008 µg/mL; in test [14] it was 0.015 µg/mL (≈ 0.0374 µM); in test [15] it was 64 µg/mL (≈ 159 µM); in [16], 32 µg/mL (≈ 79.7 µM); in [17], < 0.008 µg/mL. Also, the MIC was 0.015 µg/mL (≈ 0.0374 µM) in [18]; 0.015 µg/mL (≈ 0.0374 µM) in test [19]; < 0.008 µg/mL in [21]; 2 µg/mL (≈ 4.98 µM) in test [22]; 16 µg/mL (≈ 39.9 µM) in [23]; 0.03 µg/mL (≈ 0.0747 µM) in test [24]. Further, the MIC in test [25] came out at 0.06 µg/mL (≈ 0.149 µM); in test [26], 0.25 µg/mL (≈ 0.623 µM); in test [27], 0.5 µg/mL (≈ 1.25 µM); in test [28], 0.06 µg/mL (≈ 0.149 µM); in [29], 8 µg/mL (≈ 19.9 µM); in [30] it was 32 µg/mL (≈ 79.7 µM).

`NNC(=O)c1ccncc1` [ISONIAZID]: in [20], the lowest concentration to inhibit growth (MIC) was 0.05 µg/mL (≈ 0.365 µM).
